The term pIC50 denotes the IC50 on a negative log10 scale, so that one unit is a factor of ten.

Structures are written as SMILES. pIC50: −log10 of the molar value. Active and inactive are the calls of the source.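 How the source made its calls: active means EGFP signal decrease of at least 30% at 10 µM or well 3 SD below plate mean, unless failing retest; inactive means the rest, including hits failing retest or dose response.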

The assay deals with p/CIP-EGFP fusion (nuclear receptor coactivator 3, mouse) (UniProt Q05BA5). As to the kind of experiment: p/CIP-EGFP fusion destabilizers, primary screen, fluorescence, F442A cells (AID 1984).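 Further: dose response run in MEF cells carrying p/CIP-EGFP rather than F442A.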 Conditions: 16 h.
Chain of p/CIP-EGFP fusion (nuclear receptor coactivator 3, mouse) (Q05BA5 1-1403): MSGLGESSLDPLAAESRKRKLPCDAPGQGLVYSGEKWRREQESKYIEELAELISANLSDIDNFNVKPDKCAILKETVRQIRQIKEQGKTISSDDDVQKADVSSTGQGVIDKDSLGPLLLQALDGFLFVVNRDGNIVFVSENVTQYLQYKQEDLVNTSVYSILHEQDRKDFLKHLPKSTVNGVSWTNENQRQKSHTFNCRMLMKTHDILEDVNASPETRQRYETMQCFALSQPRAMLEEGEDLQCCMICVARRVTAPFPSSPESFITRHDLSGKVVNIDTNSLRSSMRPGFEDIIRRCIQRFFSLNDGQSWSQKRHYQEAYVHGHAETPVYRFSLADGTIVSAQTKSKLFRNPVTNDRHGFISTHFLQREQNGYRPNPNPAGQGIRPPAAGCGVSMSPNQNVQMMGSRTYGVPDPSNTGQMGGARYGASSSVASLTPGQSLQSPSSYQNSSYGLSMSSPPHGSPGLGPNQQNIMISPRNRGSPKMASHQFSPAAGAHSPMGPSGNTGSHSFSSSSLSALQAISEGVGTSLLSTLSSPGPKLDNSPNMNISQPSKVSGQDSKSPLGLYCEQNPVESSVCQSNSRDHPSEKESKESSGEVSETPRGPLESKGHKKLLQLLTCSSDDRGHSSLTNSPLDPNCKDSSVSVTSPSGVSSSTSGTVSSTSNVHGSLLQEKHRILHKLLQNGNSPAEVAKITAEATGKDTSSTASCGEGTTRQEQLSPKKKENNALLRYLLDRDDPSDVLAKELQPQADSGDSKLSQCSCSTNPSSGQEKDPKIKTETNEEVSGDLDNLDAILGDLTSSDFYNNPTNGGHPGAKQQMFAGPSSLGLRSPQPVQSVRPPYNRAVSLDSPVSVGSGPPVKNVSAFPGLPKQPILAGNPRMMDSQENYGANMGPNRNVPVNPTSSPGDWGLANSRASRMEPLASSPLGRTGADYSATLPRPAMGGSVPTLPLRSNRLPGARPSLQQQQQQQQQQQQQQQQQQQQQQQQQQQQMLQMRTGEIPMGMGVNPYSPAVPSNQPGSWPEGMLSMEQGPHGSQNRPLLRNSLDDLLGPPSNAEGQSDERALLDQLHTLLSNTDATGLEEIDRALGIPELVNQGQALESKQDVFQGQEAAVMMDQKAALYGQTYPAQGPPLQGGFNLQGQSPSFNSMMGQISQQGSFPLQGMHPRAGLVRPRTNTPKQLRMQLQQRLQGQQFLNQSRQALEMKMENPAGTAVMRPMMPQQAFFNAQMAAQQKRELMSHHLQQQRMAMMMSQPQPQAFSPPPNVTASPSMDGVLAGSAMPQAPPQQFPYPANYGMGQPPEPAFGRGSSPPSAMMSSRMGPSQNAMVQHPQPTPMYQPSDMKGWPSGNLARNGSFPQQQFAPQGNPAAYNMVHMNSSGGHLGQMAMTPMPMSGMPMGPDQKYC
As for `O=C1C(Cl)=C(NCCN2CCCCC2)C(=O)c2ccccc21`, the pIC50 was 4.83.

In the case of `Nc1ccc2c(c1)C(=O)C(=O)c1ccccc1-2`, the pIC50 was 4.84.

`Cc1ccc(NC2=C/C(=N\S(=O)(=O)c3cccs3)c3ccccc3C2=O)c(C)c1`: the pIC50 was 4.71.

For `CC(C)(C)c1cc[n+](C2=C([O-])c3ccccc3C(=O)/C2=N\S(=O)(=O)c2cccs2)cc1`, the pIC50 is 4.57.

As to `CCOC(=O)N=Nc1c2ccccc2c2nc3no[nH]c3nc12`, the pIC50 was 4.73.

For the compound `COc1ccc(CS(=O)/C(Cl)=C(/Cl)C(=O)Nc2ccc(OC)nc2)cc1` (centres undefined), the pIC50 is 4.78.

In the case of `Cc1oc2c(c1C(=O)NCc1cccnc1)C(=O)c1ccccc1C2=O`, the negative-log IC50 (pIC50) is 5.37.

Take `COc1ccc(NC(=O)/C(Cl)=C(/Cl)S(=O)Cc2ccc(Cl)cc2)cn1` (centres undefined): the IC50 entry is “inactive”.

As for `CCOC(=O)c1c(C)[nH]c2c1-c1ccccc1C(=O)C2=O`, the pIC50 was 5.46.

In the case of `O=C1C(Nc2ccc(O)cc2)=C/C(=N/S(=O)(=O)c2cccs2)c2ccccc21`, the pIC50 was 5.57.

For `O=C1C(Nc2ccccc2)=C/C(=N/S(=O)(=O)c2cccs2)c2ccccc21`, the pIC50 was 5.42.

Turning to `CCCc1nc2c(=O)n(C)c(=O)nc-2n(C)n1`, the negative logarithm of the IC50 (pIC50) was 5.30.

Regarding `Cc1ccccc1NC1=C/C(=N\S(=O)(=O)c2cccs2)c2ccccc2C1=O`, the pIC50 was 4.79.

In the case of `CC1CCN(S(=O)(=O)c2ccc3c(c2)C(=NO)c2cc(S(=O)(=O)N4CCC(C)CC4)ccc2-3)CC1`, the pIC50 is 5.64.

Source of the values: PubChem BioAssay AID1984 (Sanford-Burnham Center for Chemical Genomics, 2009).
